The numbers were not newly measured in PubChem BioAssay AID1259410 (Chemical Carcinogenesis Research Information System (CCRIS), 2018), which cites them from elsewhere.

For this data set, the system named is rodent tumor promotion studies, tumor incidence. The experiment in a line: CCRIS tumor promotion studies.

For the compound `CCC1(c2ccccc2)C(=O)NC(=O)NC1=O`, the outcome is, setting by setting: (Carcinogen: 2-(ACETYLAMINO)FLUORINE, Doses [Carcinogen]: DIET, Doses [Promoter]: IN DIET, Route [Carcinogen]: ORAL, Route [Promoter]: ORAL, Species: RAT, Strain/Sex: MALE) “liver”; (Carcinogen: 3'-METHYL-4-DIMETHYLAMINOAZOBENZENE, Doses [Carcinogen]: DIET, Doses [Promoter]: IN DIET, Route [Carcinogen]: ORAL, Route [Promoter]: ORAL, Species: RAT, Strain/Sex: MALE) “liver”; (Carcinogen: 4-DIMETHYLAMINOAZOBENZENE, Doses [Carcinogen]: DIET, Doses [Promoter]: IN DIET, Route [Carcinogen]: ORAL, Route [Promoter]: ORAL, Species: RAT, Strain/Sex: MALE) “liver”; (Carcinogen: DIETHYLNITROSAMINE [55-18-5], Doses [Carcinogen]: 90 MG/KG BW ONCE, Doses [Promoter]: 90 MG/KG BW DAILY FOR UP TO 76 WK STARTING 2 WK AFTER CARCINOGEN TREATMENT (STUDY DURATION: 76 WK), Route [Carcinogen]: IP INJECTION, Route [Promoter]: DIET, Species: MOUSE, Strain/Sex: C3H/HE/MALE) “liver: tumor incidence was 100% by 52 wk and 10 tumors/animal”; (Carcinogen: DIETHYLNITROSAMINE [55-18-5], Doses [Carcinogen]: 90 MG/KG BW ONCE, Doses [Promoter]: 90 MG/KG BW DAILY FOR UP TO 90 WK STARTING 2 WK AFTER CARCINOGEN TREATMENT (STUDY DURATION: 92 WK), Route [Carcinogen]: IP INJECTION, Route [Promoter]: DIET, Species: MOUSE, Strain/Sex: B6C3F1/MALE) “liver: promoter increased liver tumor incidence considerably, 12 tumors/animal a”; (Carcinogen: DIETHYLNITROSAMINE [55-18-5], Doses [Carcinogen]: 90 MG/KG BW ONCE, Doses [Promoter]: 90 MG/KG BW DAILY FOR UP TO 90 WK STARTING 2 WK AFTER CARCINOGEN TREATMENT (STUDY DURATION: 92 WK), Route [Carcinogen]: IP INJECTION, Route [Promoter]: DIET, Species: MOUSE, Strain/Sex: C57BL/6J/MALE) “liver: tumor; 5 tumors/animal at 76 wk; pb increased tumors somewhat at 40-92 wk”. The outcome reads like this: (Carcinogen: DIETHYLNITROSAMINE, 55-18-5, Doses [Carcinogen]: 5 MG/KG IN SALINE ONCE ON DAY 15 OF AGE, Doses [Promoter]: 0, 500 MG/L FOR 24 WK BEGINNING AT 28 DAYS OF AGE (STUDY DURATION: 28 WK), Route [Carcinogen]: INTRAPERITONEAL, Route [Promoter]: ORAL, Species: MOUSE, Strain/Sex: C3H/MALE) “liver: adenoma”; (Carcinogen: DIETHYLNITROSAMINE, 55-18-5, Doses [Carcinogen]: 10 MG/KG ONCE, Doses [Promoter]: 0, 500 PPM IN DIET FOR 140 D BEGINNING 30 D POST CARCINOGEN DOSE (STUDY DURATION: 450 D), Route [Carcinogen]: INTRAPERITONEAL, Route [Promoter]: ORAL, Species: RAT, Strain/Sex: SPRAGUE-DAWLEY/FEMALE) “liver: adenoma or carcinoma”; (Carcinogen: DIETHYLNITROSAMINE, 55-18-5, Doses [Carcinogen]: 80 MG/KG BW ONCE, Doses [Promoter]: 0, 0.05% IN DIET FOR 39 WK BEGINNING 1 WK POST CARCINOGEN DOSE (STUDY DURATION: 40 WK), Route [Carcinogen]: INTRAPERITONEAL, Route [Promoter]: ORAL, Species: RAT, Strain/Sex: F344/MALE) “liver: tumor”; (Carcinogen: DIETHYLNITROSAMINE, 55-18-5, Doses [Carcinogen]: 150 MG/KG ONCE, Doses [Promoter]: 0.05% IN DIET BEGINNING 2 WK POST CARCINOGEN DOSE AND CONTINUING FOR 54 WK (STUDY DURATION: 56 WK), Route [Carcinogen]: INTRAPERITONEAL, Route [Promoter]: ORAL, Species: RAT, Strain/Sex: F344/MALE) “liver: hepatocellular carcinoma or neoplastic nodule”; (Carcinogen: DIETHYLNITROSAMINE, 55-18-5, Doses [Carcinogen]: 150 MG/KG ONCE, Doses [Promoter]: 0.05% IN DIET BEGINNING 2 WK POST CARCINOGEN DOSE FOR 11 WK FOLLOWED BY CONTROL DIET FOR DURATION OF STUDY (STUDY DURATI, Route [Carcinogen]: INTRAPERITONEAL, Route [Promoter]: ORAL, Species: RAT, Strain/Sex: F344/MALE) “liver: hepatocellular carcinoma or neoplastic nodule”; (Carcinogen: DIETHYLNITROSAMINE, 55-18-5, Doses [Carcinogen]: 150 MG/KG ONCE, Doses [Promoter]: 0.05% IN DIET BEGINNING 11 WK POST CARCINOGEN DOSE AND CONTINUING FOR DURATION OF STUDY (STUDY DURATION: 56 WK), Route [Carcinogen]: INTRAPERITONEAL, Route [Promoter]: ORAL, Species: RAT, Strain/Sex: F344/MALE) “liver: hepatocellular carcinoma or neoplastic nodule”. Besides, the outcome was “liver” (Carcinogen: DIETHYLNITROSAMINE, Doses [Carcinogen]: SC, Doses [Promoter]: IN DIET, Route [Carcinogen]: SUBCUTANEOUS, Route [Promoter]: ORAL, Species: RAT, Strain/Sex: MALE); “liver: adenoma” (Carcinogen: DIMETHYLNITROSAMINE, 62-75-9, Doses [Carcinogen]: 5 MG/KG IN SALINE ONCE ON DAY 15 OF AGE, Doses [Promoter]: 0, 500 MG/L FOR 24 WK BEGINNING AT 28 DAYS OF AGE (STUDY DURATION: 28 WK), Route [Carcinogen]: INTRAPERITONEAL, Route [Promoter]: ORAL, Species: MOUSE, Strain/Sex: B6C3F1/MALE); “liver: adenoma” (Carcinogen: DIMETHYLNITROSAMINE, 62-75-9, Doses [Carcinogen]: 5 MG/KG IN SALINE ONCE ON DAY 15 OF AGE, Doses [Promoter]: 0, 500 MG/L FOR 24 WK BEGINNING AT 28 DAYS OF AGE (STUDY DURATION: 28 WK), Route [Carcinogen]: INTRAPERITONEAL, Route [Promoter]: ORAL, Species: MOUSE, Strain/Sex: C3H/MALE).
